These results are taken from ChEMBL document CHEMBL1145789, “Benzoylalanine-derived ketoamides carrying vinylbenzyl amino residues: discovery of potent water-soluble calpain inhibitors with oral bioavailability” (J Med Chem, 2003).

This assay addresses T1, Calpain-1 catalytic subunit (Homo sapiens, UniProt P07384).
T1 sequence (P07384 whole entry): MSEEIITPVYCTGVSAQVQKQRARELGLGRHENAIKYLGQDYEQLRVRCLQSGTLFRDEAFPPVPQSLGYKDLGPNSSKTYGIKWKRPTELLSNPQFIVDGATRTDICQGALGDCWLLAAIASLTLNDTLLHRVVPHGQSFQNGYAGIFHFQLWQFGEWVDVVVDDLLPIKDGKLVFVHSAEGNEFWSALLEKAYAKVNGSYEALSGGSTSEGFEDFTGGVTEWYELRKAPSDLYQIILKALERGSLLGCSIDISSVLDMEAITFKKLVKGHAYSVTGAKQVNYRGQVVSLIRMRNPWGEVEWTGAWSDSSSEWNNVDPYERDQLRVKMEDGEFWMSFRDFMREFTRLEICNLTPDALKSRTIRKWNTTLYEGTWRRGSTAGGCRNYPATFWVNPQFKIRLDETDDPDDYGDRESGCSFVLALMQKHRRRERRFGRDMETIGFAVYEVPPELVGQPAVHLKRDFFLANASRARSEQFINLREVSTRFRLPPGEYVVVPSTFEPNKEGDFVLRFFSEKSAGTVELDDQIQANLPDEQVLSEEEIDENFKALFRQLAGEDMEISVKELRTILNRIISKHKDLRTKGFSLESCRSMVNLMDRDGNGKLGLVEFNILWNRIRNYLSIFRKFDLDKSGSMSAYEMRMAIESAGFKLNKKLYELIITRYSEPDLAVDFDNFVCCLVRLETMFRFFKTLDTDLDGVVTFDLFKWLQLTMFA
Description: Inhibitory activity against human Calpain 1 isolated from erythrocytes. Type of assay: cell-free.

SMILES strings stand for the structures.

As a reminder, the Ki is the dissociation constant of the complex between target and ligand, obtained from inhibition or displacement. A high value points to lower affinity. Regarding `O=CC(Cc1ccccc1)NC(=O)c1ccccc1/C=C/c1cccc2ccccc12` (stereo unspecified), the Ki came out at 15 nM.
